Experiments:
Cannabinoid receptor 1 = Cannabinoid receptor 1 (Homo sapiens, UniProt P21554); format: functional
[1] = biological target: T1, Alpha-1A adrenergic receptor (Homo sapiens, UniProt P35348)
T1 sequence (P35348 whole entry): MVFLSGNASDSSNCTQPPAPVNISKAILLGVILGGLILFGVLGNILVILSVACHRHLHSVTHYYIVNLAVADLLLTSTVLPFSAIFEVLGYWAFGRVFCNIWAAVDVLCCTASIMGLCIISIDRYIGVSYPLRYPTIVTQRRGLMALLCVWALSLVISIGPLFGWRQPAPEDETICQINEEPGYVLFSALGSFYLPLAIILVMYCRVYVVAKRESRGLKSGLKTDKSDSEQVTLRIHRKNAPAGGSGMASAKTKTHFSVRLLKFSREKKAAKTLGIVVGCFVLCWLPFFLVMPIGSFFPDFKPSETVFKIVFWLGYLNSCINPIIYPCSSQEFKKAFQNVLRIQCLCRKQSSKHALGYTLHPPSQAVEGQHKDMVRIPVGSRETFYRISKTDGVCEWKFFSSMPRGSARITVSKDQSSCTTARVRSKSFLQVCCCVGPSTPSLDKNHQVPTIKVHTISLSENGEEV

[2] = biological target: Sodium channel protein type 5 subunit alpha (Homo sapiens, UniProt Q14524); format: functional, cell-based
[3] = biological target: 5-hydroxytryptamine receptor 6 (Homo sapiens, UniProt P50406)
[4] = biological target: 5-hydroxytryptamine receptor 7 (Homo sapiens, UniProt P34969)
[5] = biological target: Gamma-aminobutyric acid type B receptor subunit 1 (Homo sapiens, UniProt Q9UBS5)
[6] = biological target: T2, Muscarinic acetylcholine receptor M5 (Homo sapiens, UniProt P08912)
T2 sequence (P08912 whole entry): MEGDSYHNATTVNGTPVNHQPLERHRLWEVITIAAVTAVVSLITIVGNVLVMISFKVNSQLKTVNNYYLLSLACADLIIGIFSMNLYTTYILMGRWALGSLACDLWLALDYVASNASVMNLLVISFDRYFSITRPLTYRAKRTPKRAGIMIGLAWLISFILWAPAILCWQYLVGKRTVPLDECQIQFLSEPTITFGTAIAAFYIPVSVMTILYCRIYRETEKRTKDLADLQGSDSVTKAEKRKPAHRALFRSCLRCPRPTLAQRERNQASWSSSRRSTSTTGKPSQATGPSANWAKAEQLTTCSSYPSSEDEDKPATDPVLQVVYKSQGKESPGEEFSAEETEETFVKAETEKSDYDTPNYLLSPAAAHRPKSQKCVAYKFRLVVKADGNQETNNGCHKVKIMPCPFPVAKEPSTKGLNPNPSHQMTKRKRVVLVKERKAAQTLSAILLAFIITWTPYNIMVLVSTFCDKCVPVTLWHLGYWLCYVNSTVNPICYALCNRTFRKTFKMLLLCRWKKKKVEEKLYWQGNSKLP

[7] = biological target: T3, Muscarinic acetylcholine receptor M1 (Homo sapiens, UniProt P11229); format: functional, cell-based
T3 sequence (P11229 whole entry): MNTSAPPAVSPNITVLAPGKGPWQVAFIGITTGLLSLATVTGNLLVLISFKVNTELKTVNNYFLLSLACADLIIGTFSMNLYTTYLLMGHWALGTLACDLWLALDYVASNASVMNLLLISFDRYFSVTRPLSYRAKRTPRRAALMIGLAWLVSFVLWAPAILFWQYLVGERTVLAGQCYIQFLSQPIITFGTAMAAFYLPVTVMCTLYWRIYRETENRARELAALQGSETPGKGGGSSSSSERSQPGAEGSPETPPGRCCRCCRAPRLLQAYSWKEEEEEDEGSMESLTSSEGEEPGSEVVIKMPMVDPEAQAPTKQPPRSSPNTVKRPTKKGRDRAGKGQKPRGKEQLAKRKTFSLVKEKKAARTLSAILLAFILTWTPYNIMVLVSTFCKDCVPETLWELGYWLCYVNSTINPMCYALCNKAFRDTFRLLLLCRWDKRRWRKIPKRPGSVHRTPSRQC

[8] = biological target: T3, Muscarinic acetylcholine receptor M1; format: functional, cell-based; remark: listed apart in the source
[9] = biological target: T3, Muscarinic acetylcholine receptor M1; format: functional, cell-based; remark: listed apart in the source
[10] = biological target: T3, Muscarinic acetylcholine receptor M1; format: functional, cell-based; remark: listed apart in the source
[11] = biological target: Gamma-aminobutyric acid receptor subunit alpha-1 (Rattus norvegicus, UniProt P62813)
[12] = biological target: Sodium-dependent serotonin transporter (Homo sapiens, UniProt P31645)
Further: assay procedure not described here.

Sodium channel protein type 5 subunit alpha, sequence (Q14524 whole entry): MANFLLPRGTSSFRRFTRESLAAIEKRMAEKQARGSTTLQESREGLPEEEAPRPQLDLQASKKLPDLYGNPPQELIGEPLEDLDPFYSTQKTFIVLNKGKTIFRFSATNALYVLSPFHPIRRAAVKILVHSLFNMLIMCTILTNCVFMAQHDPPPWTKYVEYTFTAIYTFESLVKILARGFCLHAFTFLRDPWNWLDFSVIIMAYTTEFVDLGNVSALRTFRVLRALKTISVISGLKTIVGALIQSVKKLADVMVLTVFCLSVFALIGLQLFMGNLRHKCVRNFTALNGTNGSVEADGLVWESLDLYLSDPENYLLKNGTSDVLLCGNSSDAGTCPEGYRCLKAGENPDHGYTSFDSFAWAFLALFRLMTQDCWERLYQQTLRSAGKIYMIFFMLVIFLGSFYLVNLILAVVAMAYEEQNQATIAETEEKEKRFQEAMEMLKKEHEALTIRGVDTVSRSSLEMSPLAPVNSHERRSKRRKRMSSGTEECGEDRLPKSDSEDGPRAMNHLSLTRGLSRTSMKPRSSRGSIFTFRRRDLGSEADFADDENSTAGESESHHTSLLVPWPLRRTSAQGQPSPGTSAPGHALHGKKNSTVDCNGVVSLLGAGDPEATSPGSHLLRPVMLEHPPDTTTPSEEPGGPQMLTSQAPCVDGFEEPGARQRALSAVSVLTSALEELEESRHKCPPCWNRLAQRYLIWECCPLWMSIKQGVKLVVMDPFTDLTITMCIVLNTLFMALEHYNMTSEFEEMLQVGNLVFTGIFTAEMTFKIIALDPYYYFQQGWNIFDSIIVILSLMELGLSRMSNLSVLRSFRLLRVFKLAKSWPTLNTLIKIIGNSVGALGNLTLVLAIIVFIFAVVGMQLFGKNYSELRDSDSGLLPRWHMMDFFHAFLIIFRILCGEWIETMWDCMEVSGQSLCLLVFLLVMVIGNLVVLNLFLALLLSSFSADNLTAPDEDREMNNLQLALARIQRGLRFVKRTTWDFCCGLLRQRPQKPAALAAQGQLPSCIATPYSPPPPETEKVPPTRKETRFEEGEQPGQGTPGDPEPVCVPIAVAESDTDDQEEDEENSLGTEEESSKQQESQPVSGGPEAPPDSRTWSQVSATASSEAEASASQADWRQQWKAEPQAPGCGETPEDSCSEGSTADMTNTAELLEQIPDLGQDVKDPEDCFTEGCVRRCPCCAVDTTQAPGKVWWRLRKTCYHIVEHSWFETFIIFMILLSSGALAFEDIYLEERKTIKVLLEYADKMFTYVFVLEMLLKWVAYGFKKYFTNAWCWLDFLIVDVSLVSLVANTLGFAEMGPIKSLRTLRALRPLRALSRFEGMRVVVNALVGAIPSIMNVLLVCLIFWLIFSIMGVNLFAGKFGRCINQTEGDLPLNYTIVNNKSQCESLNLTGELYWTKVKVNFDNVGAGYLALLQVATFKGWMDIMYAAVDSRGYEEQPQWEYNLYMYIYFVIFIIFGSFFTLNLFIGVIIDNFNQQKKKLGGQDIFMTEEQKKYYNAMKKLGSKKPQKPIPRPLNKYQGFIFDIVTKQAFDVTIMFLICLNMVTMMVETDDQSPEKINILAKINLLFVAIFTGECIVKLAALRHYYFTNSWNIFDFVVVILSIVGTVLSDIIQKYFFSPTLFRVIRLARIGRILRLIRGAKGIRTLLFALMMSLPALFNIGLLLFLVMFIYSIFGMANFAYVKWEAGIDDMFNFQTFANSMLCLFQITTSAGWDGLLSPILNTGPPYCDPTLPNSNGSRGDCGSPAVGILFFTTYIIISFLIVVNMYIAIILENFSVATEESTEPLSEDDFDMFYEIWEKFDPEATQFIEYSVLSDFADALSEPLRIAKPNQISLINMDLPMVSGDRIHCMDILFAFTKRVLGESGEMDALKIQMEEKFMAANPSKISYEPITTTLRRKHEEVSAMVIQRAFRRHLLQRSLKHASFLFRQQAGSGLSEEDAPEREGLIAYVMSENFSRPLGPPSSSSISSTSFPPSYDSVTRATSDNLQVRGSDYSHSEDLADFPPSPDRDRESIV
Gamma-aminobutyric acid receptor subunit alpha-1, sequence (P62813 whole entry): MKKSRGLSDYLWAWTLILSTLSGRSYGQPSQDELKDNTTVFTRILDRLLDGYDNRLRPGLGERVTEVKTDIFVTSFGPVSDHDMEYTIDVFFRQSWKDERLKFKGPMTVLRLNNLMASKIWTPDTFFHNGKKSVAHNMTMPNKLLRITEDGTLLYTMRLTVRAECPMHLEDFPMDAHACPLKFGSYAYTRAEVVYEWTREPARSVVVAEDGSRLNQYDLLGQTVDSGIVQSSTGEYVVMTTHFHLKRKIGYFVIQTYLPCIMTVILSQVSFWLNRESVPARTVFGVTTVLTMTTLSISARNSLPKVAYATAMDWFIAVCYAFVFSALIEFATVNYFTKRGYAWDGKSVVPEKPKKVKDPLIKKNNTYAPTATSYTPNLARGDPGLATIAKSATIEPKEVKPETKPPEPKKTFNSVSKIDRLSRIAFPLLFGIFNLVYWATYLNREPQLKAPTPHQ
Sodium-dependent serotonin transporter, sequence (P31645 whole entry): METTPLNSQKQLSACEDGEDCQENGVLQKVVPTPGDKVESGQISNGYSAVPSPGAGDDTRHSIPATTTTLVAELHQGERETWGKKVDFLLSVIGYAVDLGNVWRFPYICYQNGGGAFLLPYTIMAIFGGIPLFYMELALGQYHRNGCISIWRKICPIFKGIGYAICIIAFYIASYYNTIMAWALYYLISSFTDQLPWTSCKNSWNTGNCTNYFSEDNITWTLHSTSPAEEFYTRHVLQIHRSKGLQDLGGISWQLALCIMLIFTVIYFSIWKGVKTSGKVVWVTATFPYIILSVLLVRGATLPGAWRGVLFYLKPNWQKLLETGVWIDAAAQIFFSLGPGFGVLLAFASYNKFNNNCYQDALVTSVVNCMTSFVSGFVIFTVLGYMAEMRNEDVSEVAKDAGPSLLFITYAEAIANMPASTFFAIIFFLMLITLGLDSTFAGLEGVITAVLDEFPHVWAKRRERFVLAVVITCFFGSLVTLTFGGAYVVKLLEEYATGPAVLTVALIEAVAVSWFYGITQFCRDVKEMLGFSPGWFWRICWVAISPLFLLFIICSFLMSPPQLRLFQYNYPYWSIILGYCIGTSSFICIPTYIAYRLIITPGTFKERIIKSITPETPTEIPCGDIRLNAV
Gamma-aminobutyric acid type B receptor subunit 1, sequence (Q9UBS5 whole entry): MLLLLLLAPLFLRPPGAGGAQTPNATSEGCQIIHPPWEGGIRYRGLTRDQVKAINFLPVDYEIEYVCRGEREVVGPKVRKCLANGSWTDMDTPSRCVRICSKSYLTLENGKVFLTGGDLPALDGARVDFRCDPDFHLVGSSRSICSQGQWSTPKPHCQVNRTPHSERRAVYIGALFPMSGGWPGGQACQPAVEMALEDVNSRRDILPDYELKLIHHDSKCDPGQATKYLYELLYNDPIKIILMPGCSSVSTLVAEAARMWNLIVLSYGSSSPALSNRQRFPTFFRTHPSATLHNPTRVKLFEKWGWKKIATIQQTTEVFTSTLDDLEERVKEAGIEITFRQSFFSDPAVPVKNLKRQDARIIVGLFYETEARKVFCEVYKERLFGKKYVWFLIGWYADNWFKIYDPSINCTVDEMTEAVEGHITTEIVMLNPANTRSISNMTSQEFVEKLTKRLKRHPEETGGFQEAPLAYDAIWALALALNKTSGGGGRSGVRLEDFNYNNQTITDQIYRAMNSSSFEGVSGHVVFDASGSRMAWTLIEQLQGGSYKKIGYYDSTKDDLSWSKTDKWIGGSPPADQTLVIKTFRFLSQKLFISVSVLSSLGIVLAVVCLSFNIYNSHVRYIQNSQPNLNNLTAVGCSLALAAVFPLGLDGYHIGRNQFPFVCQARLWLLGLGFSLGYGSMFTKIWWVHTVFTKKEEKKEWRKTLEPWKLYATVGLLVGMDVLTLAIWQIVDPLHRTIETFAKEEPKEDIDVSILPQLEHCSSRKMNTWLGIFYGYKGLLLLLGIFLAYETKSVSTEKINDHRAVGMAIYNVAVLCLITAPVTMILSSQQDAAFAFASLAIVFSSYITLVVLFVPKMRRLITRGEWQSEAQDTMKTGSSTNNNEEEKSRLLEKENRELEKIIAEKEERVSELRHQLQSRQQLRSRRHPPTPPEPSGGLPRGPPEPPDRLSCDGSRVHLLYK
Cannabinoid receptor 1, sequence (P21554 whole entry): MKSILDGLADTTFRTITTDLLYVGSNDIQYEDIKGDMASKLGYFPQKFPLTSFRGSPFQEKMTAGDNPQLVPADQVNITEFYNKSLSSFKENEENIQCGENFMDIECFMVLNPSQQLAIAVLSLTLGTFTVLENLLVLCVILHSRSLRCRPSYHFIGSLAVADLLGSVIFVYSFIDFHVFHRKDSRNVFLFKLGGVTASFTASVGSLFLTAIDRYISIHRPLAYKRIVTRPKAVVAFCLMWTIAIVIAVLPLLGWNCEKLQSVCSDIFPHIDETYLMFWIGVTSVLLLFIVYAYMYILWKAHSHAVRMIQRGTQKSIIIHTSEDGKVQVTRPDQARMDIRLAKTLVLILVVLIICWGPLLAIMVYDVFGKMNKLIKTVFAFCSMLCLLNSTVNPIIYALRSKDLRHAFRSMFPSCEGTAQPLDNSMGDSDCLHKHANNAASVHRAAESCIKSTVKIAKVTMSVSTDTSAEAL
5-hydroxytryptamine receptor 7, sequence (P34969 whole entry): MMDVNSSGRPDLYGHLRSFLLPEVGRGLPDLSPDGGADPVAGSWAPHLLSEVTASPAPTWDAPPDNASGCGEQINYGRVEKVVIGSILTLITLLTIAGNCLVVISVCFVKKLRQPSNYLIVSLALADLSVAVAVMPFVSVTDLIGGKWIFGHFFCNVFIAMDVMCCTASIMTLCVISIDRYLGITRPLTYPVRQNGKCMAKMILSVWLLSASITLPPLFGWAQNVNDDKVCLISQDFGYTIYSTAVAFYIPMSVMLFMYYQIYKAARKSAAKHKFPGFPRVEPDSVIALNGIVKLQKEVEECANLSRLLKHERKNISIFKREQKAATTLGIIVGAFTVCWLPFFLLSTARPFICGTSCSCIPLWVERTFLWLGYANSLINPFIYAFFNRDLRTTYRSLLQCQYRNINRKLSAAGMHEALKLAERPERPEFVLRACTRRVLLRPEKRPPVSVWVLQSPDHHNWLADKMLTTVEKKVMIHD

Question: For Cn1c(=O)cc(N2CCC[C@@H](N)C2)n(Cc2ccccc2C#N)c1=O [ALOGLIPTIN], which AC50 (Cannabinoid receptor 1) is on record?
Answer: > 10 µM

Question: What about the AC50 [1] of the same compound?
Answer: > 10 µM

Question: What about the AC50 [2] of the same compound?
Answer: > 150 µM

Question: And the AC50 [3]?
Answer: > 10 µM

Question: And the AC50 [4]?
Answer: > 10 µM

Question: What about the AC50 [5] of the same compound?
Answer: > 10 µM

Question: And the AC50 [6]?
Answer: > 10 µM

Question: How did the AC50 [7] turn out when C[N@+]1(CCF)[C@@H]2CC[C@H]1C[C@@H](OC(=O)C(O)(c1ccccc1)c1ccccc1)C2 was run?
Answer: 0.0005 µM

Question: What about the AC50 [8] of the same compound?
Answer: > 30 µM

Question: With Nc1c2ccccc2nc2ccccc12 [AMINACRINE] as the compound, how does the AC50 [9] read?
Answer: 20.4 µM

Question: And the AC50 [10]?
Answer: > 30 µM

Question: What about the AC50 [11] of the same compound?
Answer: > 30 µM

Question: And the AC50 [12]?
Answer: > 30 µM

Reference: ChEMBL document CHEMBL5291721, “A preclinical secondary pharmacology resource illuminates target-adverse drug reaction associations of marketed drugs” (Nat Commun, 2023)
